In patent publication US8134015B2, “Compound inhibiting in vivo phosphorous transport and medicine containing the same” (Kyowa Hakko Kirin Co., Ltd., priority 2003, dated 2012) one finds IC50 and inhibition data, which are given here for 27 compounds.

The IC50 is the midpoint of a concentration-inhibition curve. Broadly, the inhibition is the change of the read-out against control, counted positive when it falls. Higher therefore signals strong suppression.

In the first test the target is T1, rat NaPi-2b (Rattus norvegicus, UniProt Q9JJ09).
T1 construct: expressed in transfected cells; host or cells: Xenopus oocytes injected with cRNA
T1 sequence (Q9JJ09 1-695): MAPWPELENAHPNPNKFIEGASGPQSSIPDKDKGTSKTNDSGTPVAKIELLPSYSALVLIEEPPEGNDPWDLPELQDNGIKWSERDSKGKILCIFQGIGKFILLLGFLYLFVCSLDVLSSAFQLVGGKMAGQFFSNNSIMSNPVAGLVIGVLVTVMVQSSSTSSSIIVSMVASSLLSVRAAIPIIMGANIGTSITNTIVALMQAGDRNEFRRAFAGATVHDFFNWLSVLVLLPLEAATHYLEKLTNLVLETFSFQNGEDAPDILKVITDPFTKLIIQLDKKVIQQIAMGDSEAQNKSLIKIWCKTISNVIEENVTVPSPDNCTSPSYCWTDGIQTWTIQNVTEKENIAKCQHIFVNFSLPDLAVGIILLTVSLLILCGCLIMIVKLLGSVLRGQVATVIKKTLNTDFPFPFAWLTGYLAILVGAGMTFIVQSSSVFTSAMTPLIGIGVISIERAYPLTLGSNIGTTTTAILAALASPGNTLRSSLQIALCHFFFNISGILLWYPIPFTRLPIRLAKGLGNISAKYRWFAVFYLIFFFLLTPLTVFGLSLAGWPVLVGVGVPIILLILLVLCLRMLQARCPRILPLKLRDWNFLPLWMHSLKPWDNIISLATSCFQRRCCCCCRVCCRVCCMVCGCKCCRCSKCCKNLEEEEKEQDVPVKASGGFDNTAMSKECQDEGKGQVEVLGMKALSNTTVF
In words: Sodium-dependent phosphate uptake of Xenopus oocytes which expressed NaPi-2b (32P). The test is classed as cell-based. Conditions: Xenopus oocytes expressing rat NaPi-2b, 32P radioactive phosphorus; read-out: IC50 (phosphate uptake inhibitory activity). The method in brief: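 Inhibition at 300 μM and 100 μM was read off one inhibition curve of 32P phosphate uptake. Uptake was measured in Xenopus oocytes cultured 2 days after injection of cRNA for cloned rat NaPi-2b.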
As for `Cc1ccc(/C=N/NC(=O)c2cc(Br)ccc2NC(=O)c2ccc(CN3CCC(CO)CC3)cc2)cc1` [Compound 333, N-[4-Bromo-2-(4-methyl-benzylidene-hydrazinocarbonyl)-phenyl]-4-(4-hydroxymethyl-piperidin-1-ylmethyl)-benzamide], the half-inhibitory concentration (IC50) came out at 17.2 µM.
As for `CCN(CC)CCN(Cc1cccc(C(=O)Nc2sc3c(c2C(=O)N/N=C/c2ccc(Cl)c(C(F)(F)F)c2)CCCC3)c1)C(C)=O` [Compound 656, 3-{[Acetyl-(2-diethylamino-ethyl)-amino]-methyl}-N-[3-(4-chloro-3-trifluoromethyl-benzylidene-hydrazinocarbonyl)-4,5,6,7-tetrahydro-benzo[b]thiophen-2-yl]-benzamide], the half-maximal inhibitory concentration (IC50) stood at 2.98 µM.
As to `Cn1cccc1/C=N/NC(=O)c1cc(Cl)ccc1NC(=O)c1cccnc1` [Compound 212, N-[4-Chloro-2-(1-methyl-1H-pyrrol-2-ylmethylene-hydrazinocarbonyl)-phenyl]-nicotinamide], the 50% inhibitory concentration (IC50) turned out to be 71.3 µM.
In the case of `CCN(CCO)Cc1ccc(C(=O)Nc2ccc(Cl)cc2C(=O)N/N=C/c2ccc(Cl)c(C(F)(F)F)c2)cc1` [Compound 437, N-[4-Chloro-2-(4-chloro-3-trifluoromethyl-benzylidene-hydrazinocarbonyl)-phenyl]-4-{[ethyl-(2-hydroxy-ethyl)-amino]-methyl}-benzamide], the half-inhibitory concentration (IC50) was < 3 µM.
Still for that read-out and setting: then `CCN(CC)CCNCc1cccc(C(=O)Nc2sc3c(c2C(=O)N/N=C/c2cccc(F)c2)CCC3)c1` [Compound 812, 3-[(2-Diethylamino-ethylamino)-methyl]-N-[3-(3-fluoro-benzylidene-hydrazinocarbonyl)-5,6-dihydro-4H-cyclopenta[b]thiophen-2-yl]-benzamide], with 5.58 µM; and `O=C(Nc1ccccc1C(=O)N/N=C/c1ccc(Cl)cc1)c1cccc(OC(F)(F)F)c1` [Compound 123], with 3.77 µM.
In the case of `COc1cc(OC)cc(C(=O)Nc2ccccc2C(=O)N/N=C/c2ccc(F)cc2)c1` [Compound 56, N-[2-(4-Fluoro-benzylidene-hydrazinocarbonyl)-phenyl]-3,5-dimethoxy-benzamide], the IC50 worked out at 0.89 µM.
Regarding `CCOc1ccc(C(=O)Nc2ccc(Br)cc2C(=O)N/N=C/c2ccc(C)c(C)c2)cc1` [Compound 504, N-[4-Bromo-2-(3,4-dimethyl-benzylidene-hydrazinocarbonyl)-phenyl]-4-ethoxy-benzamide], the IC50 was 18.9 µM.
On the same count and under the same terms, then `CCN(CC)CCNCc1ccc(C(=O)Nc2ccc(Br)cc2C(=O)N/N=C/c2ccc(F)cc2)cc1` [Compound 295, N-[4-Bromo-2-(4-fluoro-benzylidene-hydrazinocarbonyl)-phenyl]-4-[(2-diethylamino-ethylamino)-methyl]-benzamide], with 7.58 µM.
For the compound `CCN(CC)CCN(C)Cc1cccc(C(=O)Nc2ccc(I)cc2C(=O)N/N=C/c2ccc(C)cc2)c1` [Compound 475, 3-{[(2-Diethylamino-ethyl)-methyl-amino]-methyl}-N-[4-iodo-2-(4-methyl-benzylidene-hydrazinocarbonyl)-phenyl]-benzamide], the IC50 is < 3 µM.
For the compound `COc1ccc(C(=O)Nc2ccccc2C(=O)N/N=C/c2ccc(OC)c(Br)c2)cc1` [Compound 100, N-[2-(3-Bromo-4-methoxy-benzylidene-hydrazinocarbonyl)-phenyl]-4-methoxy-benzamide], the concentration for half-maximal inhibition (IC50) came out at 0.64 µM.
As to `CCN(CC)CCN(C)Cc1cccc(C(=O)Nc2scc(C)c2C(=O)N/N=C/c2cccc(F)c2)c1` [Compound 566, 3-{[(2-Diethylamino-ethyl)-methyl-amino]-methyl}-N-[3-(3-fluoro-benzylidene-hydrazinocarbonyl)-4-methyl-thiophen-2-yl]-benzamide], the IC50 was 14.6 µM.
Regarding `CCN(CC)CCN(C)Cc1cccc(C(=O)Nc2sc3c(c2C(=O)N/N=C/c2ccc(OCCO)cc2)CCCC3)c1` [Compound 1002, 3-{[(2-Diethylamino-ethyl)-methyl-amino]-methyl}-N-{3-[4-(2-hydroxy-ethoxy)-benzylidene-hydrazinocarbonyl]-4,5,6,7-tetrahydro-benzo[b]thiophen-2-yl}-benzamide], the IC50 worked out at 2.58 µM.
The same measure, in the same setting: then `CCN(CCO)Cc1cccc(C(=O)Nc2ccc(Cl)cc2C(=O)N/N=C/c2ccc(C)c(C)c2)c1` [Compound 426, N-[4-Chloro-2-(3,4-dimethyl-benzylidene-hydrazinocarbonyl)-phenyl]-3-{[ethyl-(2-hydroxy-ethyl)-amino]-methyl}-benzamide], with 1.89 µM; and `CCN(CC)CCN(C)Cc1cccc(C(=O)Nc2ccc(I)cc2C(=O)N/N=C/c2ccc(O)cc2)c1` [Compound 481, 3-{[(2-Diethylamino-ethyl)-methyl-amino]-methyl}-N-[2-(4-hydroxy-benzylidene-hydrazinocarbonyl)-4-iodo-phenyl]-benzamide], with 12.1 µM; and `COc1ccc(C(=O)Nc2ccccc2C(=O)N/N=C/c2ccsc2)cc1OC` [Compound 24, 3,4-Dimethoxy-N-[2-(thiophen-3-ylmethylene-hydrazinocarbonyl)-phenyl]-benzamide], with 20.9 µM.
Still for that read-out and setting: then `COc1ccc(/C=N/NC(=O)c2c(NC(=O)c3cccc(CN(CC(C)O)CC(C)O)c3)sc3ccccc23)cc1` (stereo not drawn) [Compound 797, 3-{[Bis-(2-hydroxy-propyl)-amino]-methyl}-N-[3-(4-methoxy-benzylidene-hydrazinocarbonyl)-benzo[b]thiophen-2-yl]-benzamide], with 3.39 µM; and `COc1cc(/C=N/NC(=O)c2ccccc2NC(=O)c2ccc(OC)c(OC)c2)cc(OC)c1` [Compound 53, N-[2-(3,5-Dimethoxy-benzylidene-hydrazinocarbonyl)-phenyl]-3,4-dimethoxy-benzamide], with 4.05 µM; and `Cc1ccc(/C=N/NC(=O)c2cc(Br)ccc2NC(=O)c2cccc(CSc3nc[nH]n3)c2)cc1` [Compound 268, N-[4-Bromo-2-(4-methyl-benzylidene-hydrazinocarbonyl)-phenyl]-3-(1H-[1,2,4]triazol-3-ylsulfanylmethyl)-benzamide], with 1.02 µM.
For the compound `Cc1ccc(/C=N/NC(=O)c2cc(Cl)ccc2NC(=O)c2cccc(CSc3nnnn3CCN(C)C)c2)cc1C` [Compound 466, N-[4-Chloro-2-(3,4-dimethyl-benzylidene-hydrazinocarbonyl)-phenyl]-3-[1-(2-dimethylamino-ethyl)-1H-tetrazol-5-ylsulfanylmethyl]-benzamide], the IC50 is < 3 µM.
On the same count and under the same terms, then `Cc1ccc(/C=N/NC(=O)c2cscc2NC(=O)c2cccc(CN(CC(C)O)CC(C)O)c2)cc1C` (stereo not drawn) [Compound 977, 3-{[Bis-(2-hydroxy-propyl)-amino]-methyl}-N-[4-(3,4-dimethyl-benzylidene-hydrazinocarbonyl)-thiophen-3-yl]-benzamide], with 10.1 µM; and `Cc1ccc(/C=N/NC(=O)c2c(C)csc2NC(=O)c2cccc(CN3CCC(O)CC3)c2)cc1` [Compound 594, 3-(4-Hydroxy-piperidin-1-ylmethyl)-N-[4-methyl-3-(4-methyl-benzylidene-hydrazinocarbonyl)-thiophen-2-yl]-benzamide], with 3.6 µM; and `COc1ccc(/C=N/NC(=O)c2c(C)csc2NC(=O)c2cccc(CN3CCC4(CC3)OCCO4)c2)cc1` [Compound 837, 3-(1,4-Dioxa-8-aza-spiro[4,5]dec-8-ylmethyl]-N-[3-(4-methoxy-benzylidene-hydrazinocarbonyl)-4-methyl-thiophen-2-yl]-benzamide], with 12.9 µM.

Staying with this test, now noted: phosphate uptake, oocytes expressing rat NaPi-2b; 300 μM, determined from inhibition curve.
On to `CCN(CC)CCN(C)Cc1cccc(-c2nc3sc4c(c3c(=O)n2/N=C/c2ccc(Cl)c(C(F)(F)F)c2)CCCC4)c1` [Compound 674, 3-[(4-Chloro-3-trifluoromethyl-benzylidene)-amino]-2-(3-{[(2-diethylamino-ethyl)-methyl-amino]-methyl}-phenyl)-5,6,7,8-tetrahydro-3H-benzo[4,5]thieno[2,3-d]pyrimidin-4-one], for which at 300 µM the inhibition was 85.1%.
On the same count and under the same terms, then `Cc1ccc(/C=N/NC(=O)c2scc(C)c2NC(=O)c2cccc(CSCCCO)c2)cc1` [Compound 526, 3-(3-Hydroxy-propylsulfanylmethyl)-N-[4-methyl-2-(4-methyl-benzylidene-hydrazinocarbonyl)-thiophen-3-yl]-benzamide], with 40.2%; and `CN(CCCNCc1ccc(C(=O)Nc2ccc(Br)cc2C(=O)N/N=C/c2ccc(Cl)c(C(F)(F)F)c2)cc1)c1ccccc1` [Compound 761, N-[4-Bromo-2-(4-chloro-3-trifluoromethyl-benzylidene-hydrazinocarbonyl)-phenyl]-4-{[3-(methyl-phenyl-amino)-propylamino]-methyl}-benzamide], with 46.2%; and `COc1cccc(/C=N/NC(=O)c2cc(Br)ccc2NC(=O)c2ccc(CN3CCN(c4ccccn4)CC3)cc2)c1` [Compound 778, N-[4-Bromo-2-(3-methoxy-benzylidene-hydrazinocarbonyl)-phenyl]-4-(4-pyridin-2-yl-piperazin-1-ylmethyl)-benzamide], with 39.1%.
